The source of these data is US20090131351A1, “Methods, compositions, and kits for modulating tumor cell proliferation” (Antisoma Research Limited, priority 2007, published 2009).

Values joined by “and” are separate entries in the source; they are usually repeats but may differ in a detail not shown here. Identical values can stand only once.

Data set [1] has as its system MV4-11 cells (AML cell line). Description: Sulphorhodamine B assay, MV4-11 cells. Particulars: 6 days. It counts as cell-based, human. As to the method: 1 μM AS1411 was added with varying concentrations of cytarabine (0.002 to 1.5 μM) and cells were incubated for 6 days. A control was run with the 1 μM AS1411 without cytarabine. A second control series was run with the varying amounts of cytarabine but with no AS1411 present.
The remaining cell mass after exposure to AS1411 was measured with a spectrophotometer and IC50 determined.

The subject of a further data set is AML cell line. The data set can be described thus: Apoptosis, caspase, DNA fragmentation, PS externalization and cell cycle effects of AS1411 in AML cell line. It counts as cell-based. The note with it: AS1411 administered to AML cell line.
In a further data set the test system is KG-1 (AML cell line). The data set can be described thus: Sulphorhodamine B assay, KG-1 cells. It counts as cell-based. The note with it: 6 days, SRB. As to the method:
(§1) MV4-11 cells (AML cell line available and obtained from ATCC under catalogue number CRL-9591) were seeded in wells of a 96-well plate at a number optimised for each cell line. 1 μM AS1411 was added with varying concentrations of cytarabine (0.002 to 1.5 μM) and cells were incubated for 6 days. A control was run with the 1 μM AS1411 without cytarabine. A second control series was run with the varying amounts of cytarabine but with no AS1411 present.
(§2) Cells were then washed, fixed to the 96-well plate and exposed to the dye Sulphorhodamine B (SRB; available from Sigma-Aldrich, Dorset, UK; catalogue number S-1402). The remaining cell mass after exposure to AS1411 was measured with a spectrophotometer and IC50 determined.
(§3) Multiple haematological cancer cell lines were exposed to varying concentrations of AS1411 over a period of 6 days according to the Sulphorhodamine B assay described in Example 1. […] (See FIG. 2). […] Normal fibroblast and B cells were however unaffected by similar concentrations of AS1411.
Background: In SRB staining, fixed cells bind dye roughly in proportion to their protein.

Another data set has as its system HL-60 (AML cell line). Description: Sulphorhodamine B assay, HL-60 cells. It counts as cell-based. The note with it: 6 days, SRB. How it is done:
as §1, §2, §3

The test system of another data set is DU-145. Description: Tumor cell line sensitivity to AS1411. Type of data set: cell-based.
Another data set deals with PC3. Description: Tumor cell line sensitivity to AS1411. It counts as cell-based.
Another data set relates to A549. The data set can be described thus: Tumor cell line sensitivity to AS1411. It counts as cell-based.
For a further data set, the system named is CALU06. Description: Tumor cell line sensitivity to AS1411. It counts as cell-based.
In the next data set the test system is LS174T. The data set can be described thus: Tumor cell line sensitivity to AS1411. Type of data set: cell-based.
For another data set, the system named is HT-29. Description: Tumor cell line sensitivity to AS1411. Type of data set: cell-based.
Another data set deals with MCF-7. The data set can be described thus: Tumor cell line sensitivity to AS1411. It counts as cell-based.
For another data set, the system named is ZR75-1. The data set can be described thus: Tumor cell line sensitivity to AS1411. It counts as cell-based.
The test system of another data set is HGC.27. The data set can be described thus: Tumor cell line sensitivity to AS1411. It counts as cell-based.
The test system of the next data set is KATO III. The data set can be described thus: Tumor cell line sensitivity to AS1411. It counts as cell-based.
In the next data set the test system is A498. Description: Tumor cell line sensitivity to AS1411. Type of data set: cell-based.
In a further data set the test system is PANC-1. The data set can be described thus: Tumor cell line sensitivity to AS1411. It counts as cell-based.
In the next data set the test system is SKOV-3. Description: Tumor cell line sensitivity to AS1411. Type of data set: cell-based.
A further data set concerns U87-MG. The data set can be described thus: Tumor cell line sensitivity to AS1411. Type of data set: cell-based.
The next data set concerns SK-MEL-28. Description: Tumor cell line sensitivity to AS1411. Type of data set: cell-based.
Another data set concerns B cells. The data set can be described thus: Effect of AS1411 on normal cells. Type of data set: cell-based. Particulars: similar concentrations of AS1411.
From the text: as §3

The subject of another data set is Normal fibroblast. The data set can be described thus: Effect of AS1411 on normal cells. Type of data set: cell-based. The note with it: similar concentrations of AS1411.
From the text: as §3

Data set [2] has as its system human AML cell line MV4-11 xenografts. The data set can be described thus: Combination therapy in a xenograft mouse model. Type of data set: in vivo, nu/nu MF1 mouse. The note with it: for Fractional Tumor Volume (FTV) relative to untreated controls: single agent; for Average volume of tumors at 7 days post-treatment (tumor volume change): group average, Cytarabine 80 mg/kg/daily i.p.; for Average volume of tumors at 7 days post-treatment (tumor volume change) / Volume of individual tumors at 7 days post-treatment (indicating tumor volume change): day 7, AS1411 40 mg/kg/day s.c. minipump; for Volume of individual tumors at 7 days post-treatment (indicating tumor volume change): individual mice, Cytarabine 80 mg/kg/daily i.p. 5 days. How it is done:
The nu/nu MF1 mouse strain has been used previously at these laboratories and background data are available. A total of 50 female MF1 mice were obtained from the Biological Research Facility, SGHMS, London) in a weight range of 5 to 6 weeks of age (nominally 23-28 g). Mice were individually identified using a subcutaneously implanted microchip.
The xenografts were prepared from the human AML cell line MV4-11 (DSMZ Number: CCL-102). Cells were grown in accordance with Standard Operating Procedures (SOP) and established methodology; suitable methods are known in the art. Cells were suspended at 2.0×10^8 cells/ml in ice-cold PBS, mixed 1:1 with ice-cold Matrigel™ Matrix (BD Biosciences, Lot 61459) and kept on ice until the time of injection into animals. Mice were injected subcutaneously with 100 μl cell suspension on the right flank.
Animals were checked regularly until visible tumors appeared. Tumors were measured in accordance with the relevant SOP twice per week and tumor volume calculated using the formula: Volume=(π÷6000)×(Tumor Length×Tumor Width×Tumor Height).
Measurements commenced approximately one week before the day of treatment when the xenograft had reached a volume of >0.03 cm^3.
Once the tumors were established, mice were allocated into groups using a randomisation procedure based on stratified xenograft volume. Measurements were recorded electronically using electronic calipers and the Trojan system for data capture.
Day 0 is defined as the day on which the average tumor volume is between 0.07 to 0.08 cm^3. Relative tumor volume on Day 0 is defined as 1.
AS1411 (manufactured by Avecia, UK, batch number: AQV-07H-005; expiry date 02/2009) was given by continuous infusion using ALZET mini-osmotic pumps (Durect Corp. CA, USA). The mini-pumps were implanted subcutaneously on days 0 on the left flank of mice (opposite to the tumor location). Mice received a dose of 40 mg/kg/day with a dose-volume of 1 μl/h lasting for 7 days. The minipumps were then removed and a second drug-loaded minipump implantation in the same location to last a further 7 days.
The intraperitoneal route of administration of Cytarabine was selected. Mice were administered with Cytarabine (DBL, Australia; batch number: TO11966AA; expiry date 02/2009) at 80 mg/kg/daily for 5 consecutive days with a dose-volume of 8 μl/g body weight starting on day 0. After 2 days gap a second cycle of a similar 5-day dosing was initiated on day 7. Control mice were untreated.
Mice (n=10) were allocated to groups as follows: • Untreated controls • Cytarabine alone • AS1411 alone • Cytarabine+AS1411
The Fractional Product method was used to analyse the combination therapy (Yokohama et al., 2000, Cancer Res., 60:2190-6). According to this method, the effects of two drugs, when combined, can be calculated by multiplying the fractional tumor volume (treated volume/control volume on a given day) by each single drug. If the effect of the drugs acting simultaneously is equal to or larger than that calculated, it would be assumed that additivity, or synergism, respectively, has occurred.
[Mean tumor volume test]/[Mean tumor volume control]
[Mean FTV of […]]×[Mean FTV of AS1411]
[Expected FTV]/[Observed FTV]
A combination therapy index R>1.0 indicates a synergistic effect.
A combination therapy index R<1.0 indicates a less than additive effect.

As to “5′-GGTGGTGGTGGTTGTGGTGG TGGTGG-3′ [AS1411]”, the IC50 result is recorded as “low” in [1] (AS1411 alone, SRB); “low” in the data set with KG-1 (AML cell line); “low” in the data set on HL-60 (AML cell line). The DNA fragmentation result in the data set on AML cell line is “dose-dependent increase”. Also, the PS externalization result with AML cell line is “increase”. In the data set on AML cell line, the apoptosis result was “induction”. The caspase activity entry in the data set with AML cell line is listed as “increase”. In addition, in the data set on AML cell line, the “cell cycle effect in tumor cells” value was “arrest at the S-phase”. For the same molecule, the “sensitivity to AS1411” value with DU-145, with PC3, with A549, in the data set with CALU06, in the data set on LS174T and in the data set on HT-29 was “sensitivity” in each case. The “sensitivity to AS1411” value in the data set on MCF-7, in the data set on ZR75-1, in the data set on HGC.27, with KATO III, with A498 and in the data set on PANC-1 was “sensitivity” throughout. Moreover, the “sensitivity to AS1411” value in the data set with SKOV-3, in the data set with U87-MG and in the data set with SK-MEL-28 was “sensitivity” throughout. In addition, the “effect on normal cells” value in the data set on B cells and in the data set with Normal fibroblast was “unaffected” in each case. For the same molecule, the “Relative tumor volume (relative to tumor volume at Day 0 of treatment)” value (“Relative tumor volume” below) is listed as 1.000 in data set [2] (Day 0 (defined as 1)), 2.500 in data set [2] (Day 4) and 3.900 in data set [2] (Day 7). In addition, the entries for the “Fractional Tumor Volume (FTV) relative to untreated controls” value in data set [2] (Day 4) and in data set [2] (Day 7) were 0.848 and 0.915, respectively. For the same molecule, in data set [2], the “Average volume of tumors at 7 days post-treatment (tumor volume change)” value was “Average = 3.9”. For the same molecule, in data set [2], the “Volume of individual tumors at 7 days post-treatment (indicating tumor volume change)” value is 3.5 and 5.9 and 3.0 and 3.3 and 4.8 and 5.5 and 2.5 (2×) and 3.8 and 4.5 and 1.1.
As for `Nc1ccn([C@@H]2O[C@H](CO)[C@@H](O)[C@@H]2O)c(=O)n1` [Cytarabine, 1β-arabinofuranosylcytosine, reference compound], the “reduction of IC50 of cytarabine by combination with AS1411” value in data set [1] (cytarabine 0.002 to 1.5 μM with 1 μM AS1411 vs cytarabine alone) is “more than three-fold”. The “Relative tumor volume” value in data set [2] (Day 0 (defined as 1)) was 1.000. Further, in data set [2] (Day 4), the “Relative tumor volume” value was 1.900 and the “Fractional Tumor Volume (FTV) relative to untreated controls” value came to 0.713. Further, in data set [2] (Day 7), the “Relative tumor volume” value was found to be 3.100 and the “Fractional Tumor Volume (FTV) relative to untreated controls” value is on record as 0.844. In [2], the “Average volume of tumors at 7 days post-treatment (tumor volume change)” value is “Average = 3.1”; the “Volume of individual tumors at 7 days post-treatment (indicating tumor volume change)” value was 7.2 and 3.5 and 2.8 and 1.5 and 2.4 (2×) and 3.4 and 2.5 and 2.2 and 1.1.
